Where two headings read alike, the source gives them in different places.
Legend:
HCC827 cells = assay: Restoring HCC827 sensitivity to erlotinib in the presence of HGF; details: Homo sapiens, HCC827, 72 h, read-out: AVG = average % of cell viability
Method: Briefly, 3×10^3 cells/well in 100 μL culture medium may be plated in 96 well plates and incubated overnight at 37° C., 5% CO2. […] Cell viability may be determined by measuring luminescence.

HT-29 cells = assay: Restoring HT-29 sensitivity to PLX4032 in the presence of HGF and EGF; assay type: cell-based; details: Homo sapiens, HT-29, 120 h; read-out: AVG = average % of cell viability
Method: The colon cancer cell line HT-29 has a B-Raf mutation and is sensitive to the B-Raf inhibitor PLX4032. […] Briefly, 3×10^3 cells/well in 100 μL culture medium may be plated in 96 well plates and incubated overnight at 37° C., 5% CO2. […] At the end of an additional 5 days of cell growth, plates may be equilibrated to room temperature for 30 minutes and 100 μL per well of CellTiter-Glo® reagent (Promega Corp.) may be added. Cell viability can be determined by measuring luminescence.

FaDu cells = assay: Restoring FaDu sensitivity to lapatinib in the presence of HGF or EGF; assay type: cell-based; details: Homo sapiens, antibodies 50 nM, read-out: % of cell viability; for viability at 0.001 µM: lapatinib 0.001 μM; for viability at 0.003 µM: lapatinib 0.003 μM; for viability at 0.01 µM: lapatinib 0.01 μM; for viability at 0.03 µM: lapatinib 0.03 μM; for viability at 0.1 µM: lapatinib 0.1 μM; for viability at 0.3 µM: lapatinib 0.3 μM; for viability at 1 µM: lapatinib 1 μM; for viability at 3 µM: lapatinib 3 μM; for viability at 10 µM: lapatinib 10 μM
Method: Briefly, 3×10^3 cells/well in 100 μL culture medium may be plated in 96 well plates and incubated overnight at 37° C., 5% CO2. […] At the end of an additional 5 days of cell growth, plates may be equilibrated to room temperature for 30 minutes and 100 μL per well of CellTiter-Glo® reagent (Promega Corp.) may be added. Cell viability can be determined by measuring luminescence.

MKN45 cells = assay: MKN45 apoptosis assay (caspase-3/7 positive cells, […]); assay type: cell-based, human; details: antibody 100 nM, untreated = 100.00
Method: The gastric cancer cell line MKN45 can be used to assay apoptosis induced by antibodies. Briefly, 3×10^3 cells/well in 80 μL culture medium may be plated in 96 well plates and incubated overnight at 37° C., 5% CO2. CellEvent™ reagent (Life Technologies, Carlsbad, Calif.) may be diluted in cell culture medium and added at 10 μL per well. […] The caspase-3/7 positive cells may be measured in real-time by […]™ Kinetic Imaging System (Essen Bioscience, Ann Arbor, Mich.) with 3 hours intervals at 37° C., 5% CO2 for a total of 120 hours.

ERK phosphorylation = details: in vitro ERK phosphorylation assay; cited from earlier work

Which viability at 1 µM (HCC827 cells) does the source give for `C#Cc1cccc(Nc2ncnc3cc(OCCOC)c(OCCOC)cc23)c1` [Erlotinib, erlotinib] here?
Its viability at 1 µM is 18%.

For `CCCS(=O)(=O)Nc1ccc(F)c(C(=O)c2c[nH]c3ncc(-c4ccc(Cl)cc4)cc23)c1F` [PLX, PLX4032], which viability at 0.00032 µM (HT-29 cells) is on record?
Its viability at 0.00032 µM is 101%.

And the viability at 0.0016 µM (HT-29 cells)?
Its viability at 0.0016 µM is 99.9%.

And the viability at 0.008 µM (HT-29 cells)?
The viability at 0.008 µM was 97.6%.

And the viability at 0.04 µM (HT-29 cells)?
The viability at 0.04 µM was 83.1%.

What about the viability at 0.2 µM (HT-29 cells) of the same molecule?
The viability at 0.2 µM was 56.7%.

And the viability at 1 µM (HT-29 cells)?
Its viability at 1 µM is 33.7%.

What does the source list for `CS(=O)(=O)CCNCc1ccc(-c2ccc3ncnc(Nc4ccc(OCc5cccc(F)c5)c(Cl)c4)c3c2)o1` [lapatinib]?
viability at 0.001 µM (FaDu cells; E = EGF (50 ng/ml)): 109%; viability at 0.001 µM (FaDu cells; H = HGF (50 ng/ml)): 99.5%; viability at 0.003 µM (FaDu cells; E = EGF (50 ng/ml)): 109%; viability at 0.003 µM (FaDu cells; H = HGF (50 ng/ml)): 101%; viability at 0.01 µM (FaDu cells; E = EGF (50 ng/ml)): 78.7%; viability at 0.01 µM (FaDu cells; H = HGF (50 ng/ml)): 95.8%; viability at 0.03 µM (FaDu cells; E = EGF (50 ng/ml)): 69.4%; viability at 0.03 µM (FaDu cells; H = HGF (50 ng/ml)): 68.8%; viability at 0.1 µM (FaDu cells; E = EGF (50 ng/ml)): 45.6%; viability at 0.1 µM (FaDu cells; H = HGF (50 ng/ml)): 45.4%; viability at 0.3 µM (FaDu cells; E = EGF (50 ng/ml)): 32.5%; viability at 0.3 µM (FaDu cells; H = HGF (50 ng/ml)): 32.5%; viability at 1 µM (FaDu cells; E = EGF (50 ng/ml)): 26.3%; viability at 1 µM (FaDu cells; H = HGF (50 ng/ml)): 26.9%; viability at 3 µM (FaDu cells; E = EGF (50 ng/ml)): 19%; viability at 3 µM (FaDu cells; H = HGF (50 ng/ml)): 18.5%; viability at 10 µM (FaDu cells; E = EGF (50 ng/ml)): 19.6%; viability at 10 µM (FaDu cells; H = HGF (50 ng/ml)): 17.1%

With “anti-MET Ab: parental anti-MET antibody C8-H241 (human IgG4 subtype), described in WO 2010/059654 [reference compound]” as the molecule, how does the “AVG = average % increase of cell apoptosis” value (“AVG = average % increase” below) (MKN45 cells; 24 hr) read?
Its value is 100.35%.

And the “AVG = average % increase” value (MKN45 cells; 48 hr)?
Its value is 222.81%.

What about the “AVG = average % increase” value (MKN45 cells; 72 hr) of the same molecule?
Its value is 275.40%.

What about the “AVG = average % increase” value (MKN45 cells; 96 hr) of the same molecule?
The value was 286.63%.

What about the “AVG = average % increase” value (MKN45 cells; 120 hr) of the same molecule?
The value was 353.84%.

B1: EM1-mAb: bispecific antibody targeting both EGFR and cMET made by controlled Fab Arm Exchange (antibody, chains of the INN, looked up, V domains shown)
VH: QVQLVESGGGVVQPGRSLRLSCAASGFTFSTYGMHWVRQAPGKGLEWVAVIWDDGSYKYYGDSVKGRFTISRDNSKNTLYLQMNSLRAEDTAVYYCARDGITMVRGVMKDYFDYWGQGTLVTVSS
VL: AIQLTQSPSSLSASVGDRVTITCRASQDISSALVWYQQKPGKAPKLLIYDASSLESGVPSRFSGSESGTDFTLTISSLQPEDFATYYCQQFNSYPLTFGGGTKVEIK
VH2: QVQLVQSGAEVKKPGASVKVSCETSGYTFTSYGISWVRQAPGHGLEWMGWISAYNGYTNYAQKLQGRVTMTTDTSTSTAYMELRSLRSDDTAVYYCARDLRGTNYFDYWGQGTLVTVSS
VL2: DIQMTQSPSSVSASVGDRVTITCRASQGISNWLAWFQHKPGKAPKLLIYAASSLLSGVPSRFSGSGSGTDFTLTISSLQPEDFATYYCQQANSFPITFGQGTRLEIK
Which “activity compared to the combination of monovalent control antibodies” value (ERK phosphorylation) does the source give for B1 here?
Its value is “superior activity”.
